In patent US6960566B1, “Compositions and methods for treatment of cancer” (The Wister Institute of Anatomy and Biology, priority 1998, dated 2005):
“Also recorded” adds a separate entry of the source.

Experiments:
[1] = tested on: BR55-2; experiment: ELISA, binding of MAb BR55-2 to monovalent peptide; details: series of ELISA assays
Excerpt: The Trp residue occupies a volume associated with the Fuca 1,3 moiety, and the Leu residue occupies the volume of the β Gal moiety and has the hydrophobic interaction of β Gal. The Tyr residue occupies a position not associated with LeY binding to B3. The computer modeling disclosed that the low energy binding mode conformation adopts a turn region similar to that observed for the YPY motif in binding to ConA [Kaur et al., 1997, J. Biol. Chem. 272:5539-5543]. This conformation lends itself to the Tyr residue of the peptide to potentially interact with several residues in CDR2 of the heavy chain of B3 that include Asp H53, Ser H52, Ser H55, or Ser H56.

[2] = tested on: MAb BR15-6A; experiment: Inhibition of MAb BR15-6A binding to LeY carbohydrate
Protocol: (§1) The peptide competition/inhibition assays referred to throughout the following examples are performed as follows: Test peptides at concentrations ranging from 10 nM to 1 mM were preincubated with 100 μl of the MAb NS19-9 (5 μg/ml) diluted in 10% […] free horse serum/PBS at room temperature. Fifty μl of preincubated inhibition complex antibody-peptide is added to each well of 96-well plate and incubated at 30-37° C. for 1 hour. […] The developed blue color was read at 450 nm after stopping the reaction with 100 μl 1M phosphoric acid. Fifty % inhibitory concentration (IC50) was calculated by non-linear least-squares regression to a four-parameter logistic equation. […]
Peptide SEQ ID NO: 99 from the family of LeY-mimicking peptides was selected because it contained a consensus motif which appeared in multiple bacterial isolates after five rounds of panning with the BR15-6A MAb. This peptide was chemically synthesized and its binding to BR15-6A MAb was evaluated. […] This peptide is further evaluated in competition assays with native LeY containing neoglycoprotein and LeY-specific MAbs BR15-6A and BR55-2.

[3] = tested on: BR15-6A MAb; experiment: ELISA, binding of MAb BR15-6A to solid phase coated peptide; details: solid phase coated peptide at 1 nM to 1 mM
Protocol: Peptide SEQ ID NO: 99 from the family of LeY-mimicking peptides was selected because it contained a consensus motif which appeared in multiple bacterial isolates after five rounds of panning with the BR15-6A MAb. This peptide was chemically synthesized and its binding to BR15-6A MAb was evaluated. […] It likely represents a conformational mimic of the LeY structure. This peptide is further evaluated in competition assays with native LeY containing neoglycoprotein and LeY-specific MAbs BR15-6A and BR55-2.

[4] = tested on: neutrophil influx into chemically irritated peritoneum; experiment: Neutrophil recruitment in Zymosan-induced peritonitis (acute inflammation model in vivo); details: mice, Zymosan i.p.
Protocol: The accumulation of neutrophils is a characteristic feature of acute and chronic inflammatory disease, and early steps in the recruitment of these cells to the site of inflammation depends upon E-selectin-mediated interaction. Thus, inhibition of neutrophil recruitment in vivo is an important test of the ability of potential therapeutic agents to inhibit E-selectin-mediated events. […] Because SA-Le^a binds to E-selectin, the adhesion-blocking ability of an SA-Le^a peptido-mimetic was measured in a neutrophil-recruitment in vivo model of acute inflammation.
The bioactivity of the 12-mer peptide SEQ ID NO: 1 which mimics the SA-Le^a carbohydrate structure was determined by administering Zymosan™ intraperitoneally (i.p.) into mice [see, e.g., Martens et al. 1995, J. Biol. Chem. 270:21129-21136; Rao et al. 1994, J. Biol. Chem. 269:19663-19666], followed three hours later by an intravenous (i.v.) injection of peptide SEQ ID NO: 1 (1 mg). Neutrophils were harvested and counted one hour later.
Derm. 78:206-209]. […] The reduction in enzyme activity is apparently due to reduction in neutrophil recruitment in mice treated with peptide mimicking E-selectin ligand SA-Le^a. This peptide inhibits E-selectin function in vivo.

[5] = tested on: MAb NS19-9; experiment: Competition ELISA: peptide inhibition of MAb NS19-9 binding to solid phase SA-Le^a-PAA
Protocol: as §1, with “hour. After 1 hour of incubation, MAb/peptide complex mixtures were transferred to wells precoated with a constant amount of neoglycoprotein containing coupled multivalent carbohydrate determinant (SA-Le^a-polyacrylamide matrix (SA-LeX-PAA or LeY-PAA) (5 μg/well) and allowed to bind for 1 hour followed by blocking with 10% γ-globulin-free horse serum for 2 hours at room temperature. Wells were washed with 100 μl PBS four times. Goat anti-mouse immunoglobulin G conjugated to horse radish peroxidase (Boehringer-Manheim, Indianapolis, Ind.) was diluted 1000-fold with 10% γ-globulin free horse serum/PBS and 100 μl was added in each well and incubated at 30-37° C. for 1 hour and washed with 100 μl PBS five times.” for “hour.”

[6] = tested on: MAb NS19-9; experiment: ELISA, direct binding of MAb NS19-9 to peptide
[7] = tested on: BR55-2; experiment: Competition of peptide with LeY for BR55-2 binding
[8] = target: MAb NS19-9; experiment: competition ELISA; peptide preincubated with MAb NS19-9, free MAb binding to SA-Le^a-PAA

Molecule: APWLYGPA (peptido-mimetic of a Lewis antigen) [SEQ ID NO: 121]
- binding of BR55-2 to monovalent peptide (in words) [1]: does not bind

Molecule: DEVRPDLISTEE (peptido-mimetic of a Lewis antigen) [SEQ ID NO: 99]
- inhibition of MAb BR15-6A binding to LeY (in words) [2]: inhibit MAb BR15-6A binding
- binding of MAb BR15-6A to peptide (in words) [3]: Dose-dependent binding

Molecule: DLWDWVVGKPAG [SEQ ID NO: 1]
- myeloperoxidase activity in collected cells (in words) ([4]; 1 mg peptide i.v.): Significant reduction of enzymatic activity
- number of neutrophils in peritoneal lavage fluids (in words) ([4]; 1 mg peptide i.v. three hours later, harvest one hour later): reduced the number of neutrophils; also recorded: reduction of neutrophil influx; also recorded: partially inhibit neutrophil recruitment
- blocking of MAb NS19-9 binding to SA-Le^a-PAA (in words) [5]: blocked the binding of MAb NS 19-9
- IC50 ([5]; MAb NS19-9 5 μg/ml, solid phase SA-Le^a-PAA, read-out: IC50, blocking of MAb NS19-9 binding to SA-Le^a-PAA): 700 µM
- binding of MAb NS19-9 to peptide (in words) [6]: dose-dependent binding

Molecule: FSLLW (peptido-mimetic of a Lewis antigen) [SEQ ID NO: 114]
- competition with LeY for BR55-2 binding (in words) [7]: competes with LeY for BR55-2 binding

B1: peptide … (peptide)
peptide: DLWDWVVGKPAG
- IC50 [8]: 700 µM
